Columns and labels:
[1] = Stability in mouse liver microsomes; assay type: in vitro ADME; conditions: 0.5 mg/mL pooled male microsomes, read-out: Intrinsic Clearance (Cl int) Liver Microsomes
Method: Memantine (1 μM) was incubated in 0.5 mg/mL of pooled male rat, mouse, or human liver microsomes (obtained commercially), in 0.1 M phosphate buffer at 37 °C. After pre-warming the mixture for 5 min, reactions were initiated by the addition of NADPH (1 mM). Aliquots (80 μL) were taken at 0, 5, 10, 20 and 40 min, and the reaction immediately terminated by adding into 80 μL of acetonitrile containing an analytical internal standard (IS). Samples were centrifuged and the supernatant fractions analyzed by LC-MS/MS with multiple reaction monitoring (MRM). All incubations were performed in duplicate. Testosterone was used as the positive control. The MRM area response ratio of the analyte over IS for Time=0(control) was set to 100%, the relative decrease in MRM area ratio intensity over time against that of the control (percent parent decrease) was used to determine the half-life (t1/2) of memantine in the incubation. Half-life values were calculated from the relationship:
t1/2 (min) = -0.693/λ, where λ is the slope of the Ln concentration vs time curve. The intrinsic clearance (Clint) was calculated as:
Clint = (0.693 x incubation volume (μL))/(t½ (min) x mg of microsomal protein)

human OAT3 = target: T1, human OAT3 (Homo sapiens, UniProt Q8TCC7); assay: Indirect uptake transporter assay, OAT3; assay type: in vitro ADME; design: key to Maximal Inhibition: ND: Not Determined (< 50% inhibition); NDe: Not Decisive (Activation or inhibition > 25% of the baseline but no trend observed); NIO: No Interaction Observed (< 20% inhibition)
T1 construct: expressed in transfected cells
T1 sequence (Q8TCC7 1-542): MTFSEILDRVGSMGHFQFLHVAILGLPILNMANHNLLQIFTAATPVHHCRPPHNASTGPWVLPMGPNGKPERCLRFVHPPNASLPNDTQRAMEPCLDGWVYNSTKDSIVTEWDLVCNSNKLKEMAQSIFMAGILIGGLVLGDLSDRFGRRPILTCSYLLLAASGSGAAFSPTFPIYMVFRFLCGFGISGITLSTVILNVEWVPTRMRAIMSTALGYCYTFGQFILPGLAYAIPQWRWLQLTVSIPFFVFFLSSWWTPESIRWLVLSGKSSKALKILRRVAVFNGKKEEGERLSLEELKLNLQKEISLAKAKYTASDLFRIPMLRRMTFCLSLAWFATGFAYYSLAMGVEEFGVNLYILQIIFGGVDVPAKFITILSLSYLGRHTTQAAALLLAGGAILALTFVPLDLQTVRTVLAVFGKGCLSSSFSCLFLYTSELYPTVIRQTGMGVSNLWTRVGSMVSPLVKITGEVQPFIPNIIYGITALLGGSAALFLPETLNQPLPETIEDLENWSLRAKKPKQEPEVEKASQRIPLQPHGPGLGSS
Source text: To determine whether memantine is an inhibitor of the human OATP2B1 (OATP-B), OCT1, OCT2, OAT3, PEPT1, PEPT2 uptake transporters. The standard uptake transporter assay is an indirect, inhibitory-type screening assay, performed with cold test article, which in this case was memantine. It provides information on any interaction (substrate or inhibitor) between selected uptake transporters and memantine that would affect the transport of the reporter compound. […] A radiolabeled reporter substrate is transported into the cells transfected with the selected human uptake transporter, and the inhibitory effect of memantine on the transport of this reporter substrate is measured. Values are presented on a relative scale; 100% defined as transport in the presence of the solvent and without memantine (no inhibition), and 0% defined as transport detected without transporter activity. IC50 is defined as the concentration required to inhibit the transport of the reporter substrate by 50%.
The uptake transporter assay was carried out under the conditions described in the table below, with either CHO cells or MDCKII cells stably expressing the respective uptake transporter.
Duplicate incubations of memantine (0 or DMSO control, 0.41, 1.2, 3.7, 11, 33, 100 and 300 µM) were conducted per concentration on transfected and in parental cells. A reference inhibitor (positive control, duplicate) was incubated in transfected cells.
CHO cells were cultured in a 1:1 mixture of Dubelcco’s Modified Eagle’s Medium (DMEM, Lonza, Allendale, NJ) and Ham's F-12 (F-12, Lonza, Allendale, NJ) and MDCKII cells in DMEM at 37°C in an atmosphere of 95:5 air:CO2. […]
After the experiment cells were rinsed with 2 x 100µl of Krebs-Henseleit buffer and lysed with 50 µl of 0.1M NaOH. ^3H-estrone-3-sulfate, ^14C-TEA, ^14C-metformin and ^3H-Gly-Sar transport was determined by total radioactivity by transferring an aliquot (35µl) from each well to a vial containing liquid scintillant for analysis.

YAC128 mice = conditions: cited from earlier work

## CC12CC3CC(C)(C1)CC(N)(C3)C2 [memantine]
[1]
  microsomal CLint at 1 μM: < 13.9 µL/min/mg
Human OAT3
  interaction with OAT3 mediated estrone-3-sulfate transport: did not interact
Human OAT3; OAT3, up to 300 µM
  Maximal Inhibition: NDe
Human OAT3; OAT3, probe printed in Table 5: Metformin (2µM), methods and text: E3S
  IC50: ND (Not Determined (< 50% inhibition))
YAC128 mice; YAC128 mice, 1 mg/kg in drinking water for 2 months, age 4 months
  CREB phosphorylation deficit: reversed the deficit in CREB phosphorylation
YAC128 mice; YAC128 mice, 1 mg/kg in drinking water for 2 months
  rotarod learning task: improvement in a rotarod learning task
YAC128 mice; YAC128 mice, high-dose (30 mg/kg)
  motor performance and neuropathology compared to vehicle-treated mice: worsened motor performance and neuropathology
YAC128 mice; YAC128 mice, high-dose
  HTT aggregate formation and TCP-1 expression levels: decrease HTT aggregate formation and TCP-1 expression levels
YAC128 mice; YAC128 mice, low-dose (not high-dose)
  striatal levels of Rhes protein: decreased striatal levels of Rhes protein
YAC128 mice; aged (12 months) YAC128 mice, low-dose
  neuropathology and motor deficits: rescue neuropathology as well as motor deficits

From PMC3269340, “Pharmacokinetics of memantine in rats and mice” (PLoS Currents, 2012)
